Experimental findings from patent publication US20190225650A1, “PEPTIDOMIMETIC MACROCYCLES AND USE THEREOF IN REGULATING HIF1ALPHA” (AILERON THERAPEUTICS, INC., priority 2013, published 2019) are described below.

Broadly, the IC50 is the concentration that inhibits the measured activity by half. In general, EC50 refers to the concentration needed to bring the measured effect to its halfway point.

The target in experiment [1] is T1, flag-tagged HIF1α (AA 786-826) / His6-tagged p300 (AA 323-423) complex (Homo sapiens, UniProt Q09472).
T1 construct: His6-tagged p300 (AA 323-423); made in house; host or cells: E. coli (pETDuet vector)
Description: HIF1α p300 displacement assay (TR FRET, +CHAPS). The format is binding. Conditions: read-out: IC50 (nM) (HIF1α_p300 Displacement + CHAPS). Summed up: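 In this TR-FRET displacement format, peptides compete HIF1α C-terminal transactivation domain off p300-CH. They were preincubated 1 h at room temperature with 300 nM complex in HEPES pH 7.4/NaCl buffer with 7.5 mM CHAPS and 1 mM DTT. Anti-His-D2 (4 nM) and anti-Flag-K (0.5 μM) followed for 2 h, and a one-site fit of the fluorescence ratio gave IC50.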

For experiment [2], the system named is HRE-bla ME-180 cells. Nature of the experiment: Reporter gene assay (HRE-bla ME-180 HIF reporter, GeneBLAzer). It is filed as cell-based, human. As to conditions: for EC50: 24 hour normoxia. The gist of the method:
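A FRET β-lactamase readout of HIF transcription was used. After compound treatment in 0.3% DMSO/media under normoxic conditions, 20 μl of 6× LiveBLAzer-FRET B/G (CCF4-AM) substrate was added. Plates sat 3 hr at room temperature in the dark and were read at 409 Ex/460Em and 409Ex/530Em on a Synergy 2. Inhibition was compared against DMSO vehicle controls, with chetomin as positive control.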
(In general: A reporter such as luciferase makes a cellular process visible.)

For experiment [3], the system named is HRE-bla ME-180 cells. Description: Cell proliferation assay (viability, MTT, 1% FBS). It is filed as cell-based, human. The gist of the method: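 Viable cell number was measured with the CellTiter 96 (MTT) kit after compounds were applied for a 16 h normoxic (21% O2) pretreatment, followed by further normoxic or hypoxic (1% O2) culture. Cells: 2×10^4 ME-180 per well, Opti-MEM + 1% FBS, 0.5% DMSO vehicle.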

Bridge positions count the residues as written; N and C are the ends. Square brackets hold non-standard residues; d marks the D form. Peptide text beside a SMILES is read from it. R8 = C=CCCCCCC[C@@](C)(N)C(=O)O; S5 = C=CCCC[C@](C)(N)C(=O)O; Nle = CCCC[C@H](N)C(=O)O

`CCCC[C@@H]1NC(=O)[C@H](CC(C)C)NC(=O)[C@H](C(C)C)NC(=O)[C@@](C)(NC(=O)[C@H](CCC(=O)O)NC(=O)[C@H](CC(=O)O)NC(=O)[C@@H](NC(=O)[C@H](Cc2ccccc2)NC(C)=O)[C@@H](C)CC)CCCC=CCCCC2(CCCC=CCCC[C@](C)(C(=O)N[C@@H](C)C(=O)N[C@@H](C)C(=O)N[C@@H](CC(C)C)C(N)=O)NC(=O)[C@H]([C@@H](C)CC)NC(=O)[C@H](C(C)C)NC(=O)[C@H](CC(C)C)NC2=O)NC1=O` (some centres unmarked) [SP-211]: the IC50 in experiment [1] fell in the range of 200 to 400 nM. In the experiment with HRE-bla ME-180 cells [2], the “18 h Avg % max inhibition at top conc (HIF Rptr-24 hrs normoxia) (μM)” value (from here on “18 h Avg % max inhibition at top conc”) was “+ (<10: +)” and the EC50 was > 30 µM. Further, the “Viability 1% FBS AVG (MTT V3-24 hr Normoxia) (μM)” value (from here on “Viability 1% FBS AVG”) in the experiment with HRE-bla ME-180 cells [3] is recorded as “++++ (≥30: ++++)”.
Regarding `CCCC[C@H](NC(=O)[C@H](CCC(=O)O)NC(=O)[C@@H](NC(=O)[C@@H](NC(=O)[C@H](CC(C)C)NC(=O)[C@]1(C)CCCC=CCCC[C@](C)(NC(=O)[C@H](CCC(=O)O)NC(=O)[C@H](CC(=O)O)NC(=O)[C@@H](NC(=O)[C@H](Cc2ccccc2)NC(C)=O)[C@@H](C)CC)C(=O)N[C@@H](C(C)C)C(=O)N[C@@H](CC(C)C)C(=O)N[C@@H](CCCC)C(=O)N1)C(C)C)[C@@H](C)CC)C(=O)N[C@@H](C)C(=O)N[C@@H](CC(C)C)C(N)=O` [SP-111] (Ac-FIDE[S5]VL[Nle][S5]LVIE[Nle]AL-NH2; staple 5-9), the IC50 in experiment [1] fell in the range of 200 to 400 nM. Besides, in the experiment on HRE-bla ME-180 cells [2], the “18 h Avg % max inhibition at top conc” value is “++++ (≥50: ++++)” and the half-maximal effective concentration (EC50) is > 30 µM. Moreover, the “Viability 1% FBS AVG” value with HRE-bla ME-180 cells [3] is listed as “++++ (≥30: ++++)”.
Take `CC[C@H](C)[C@H](NC(=O)[C@H](CCCNC(=N)N)NC(=O)[C@H](CC(=O)O)NC(=O)[C@H](CC(C)C)NC(=O)[C@H](C)NC(=O)[C@H](CCSC)NC(=O)[C@]1(C)CCCC=CCCC[C@](C)(NC(=O)[C@H](CCSC)NC(=O)[C@H](CC(C)C)NC(=O)[C@@H](NC(=O)[C@H](C)NC(=O)[C@H](CCC(N)=O)NC(=O)[C@H](CC(N)=O)NC(=O)[C@@H](NC(=O)[C@H](Cc2ccccc2)NC(C)=O)[C@@H](C)CC)C(C)C)C(=O)N[C@@H](CC(C)C)C(=O)N[C@@H](C(C)C)C(=O)N[C@@H]([C@@H](C)CC)C(=O)N1)C(N)=O` [SP-271] (Ac-FINQAVLM[S5]LVI[S5]MALDRI-NH2; staple 9-13): the IC50 in experiment [1] was > 700 nM. Moreover, in the experiment on HRE-bla ME-180 cells [2], the “18 h Avg % max inhibition at top conc” value was “+++ (≤25 but <50: +++)” and the concentration for a half-maximal effect (EC50) is > 30 µM. Further, the “Viability 1% FBS AVG” value in the experiment with HRE-bla ME-180 cells [3] is “++++ (≥30: ++++)”.
Turning to `CCCC[C@H](NC(=O)[C@H](CCC(=O)O)NC(=O)[C@]1(C)CCCC=CCCCCCC[C@@](C)(NC(=O)[C@H](CCC(=O)O)NC(=O)[C@H](CC(=O)O)NC(=O)[C@@H](NC(=O)[C@H](CC(N)=O)NC(=O)[C@@H](NC(=O)[C@H](CCC(N)=O)NC(=O)[C@H](CC(=O)O)NC(=O)[C@]2(C)CCCC=CCCC[C@](C)(NC(=O)[C@H](CCC(=O)O)NC(=O)[C@H](CCC(=O)O)NC(=O)CNC(=O)[C@H](CCC(N)=O)NC(=O)[C@H](CC(C)C)NC(=O)[C@H](CC(C)C)NC(C)=O)C(=O)N[C@@H](CC(C)C)C(=O)N[C@@H](CCCNC(=N)N)C(=O)N[C@@H](C)C(=O)N2)C(C)C)[C@@H](C)CC)C(=O)N[C@@H](C(C)C)C(=O)N[C@@H](CC(C)C)C(=O)N[C@@H](CCCC)C(=O)N[C@@H](CO)C(=O)N[C@@H](CC(C)C)C(=O)N[C@@H](C(C)C)C(=O)N1)C(=O)NCC(N)=O` [SP-344] (Ac-LLQGEE[S5]LRA[S5]DQVNIDE[R8]VL[Nle]SLV[S5]E[Nle]G-NH2; staple 7-11, 19-26), the IC50 in experiment [1] lay in the range of 400 to 700 nM. In the experiment with HRE-bla ME-180 cells [2], the “18 h Avg % max inhibition at top conc” value is listed as “+ (<10: +)” and the EC50 is > 30 µM. Moreover, the “Viability 1% FBS AVG” value in the experiment with HRE-bla ME-180 cells [3] was “++++ (≥30: ++++)”.
Taken in the same sequence, the figures for `CC[C@H](C)[C@H](NC(=O)[C@H](Cc1ccccc1)NC(C)=O)C(=O)N[C@@H](CC(=O)O)C(=O)N[C@@H](CCC(=O)O)C(=O)N[C@@H](CCC(=O)O)C(=O)N[C@H](C(=O)N[C@@H](CC(C)C)C(=O)N[C@@H](CCSC)C(=O)N[C@@]1(C)CCCC=CCCC[C@@](C)(C(=O)N[C@@H](CCSC)C(=O)N[C@@H](C)C(=O)N[C@@H](CC(C)C)C(N)=O)NC(=O)[C@H]([C@@H](C)CC)NC(=O)[C@H](C(C)C)NC(=O)[C@H](Cc2ccccc2)NC1=O)C(C)C` [SP-236] (Ac-FIDEEVLM[S5]FVI[S5]MAL-NH2; staple 9-13) were > 700 nM, “+++ (≤25 but <50: +++)”, > 30 µM and “++++ (≥30: ++++)”.
For `CCCC[C@H](NC(=O)[C@H](CCC(=O)O)NC(=O)[C@]1(C)CCCC=CCCCCCC[C@@](C)(NC(=O)[C@H](CCC(=O)O)NC(=O)[C@H](CC(=O)O)NC(=O)[C@@H](NC(=O)[C@H](CC(N)=O)NC(=O)[C@@H](NC(=O)[C@H](CCC(N)=O)NC(=O)[C@H](CC(=O)O)NC(=O)[C@H](CC(C)C)NC(=O)[C@H](C)NC(=O)[C@H](CCCNC(=N)N)NC(=O)[C@]2(C)CCCC=CCCC[C@](C)(NC(=O)[C@H](CCC(N)=O)NC(=O)[C@H](CC(C)C)NC(=O)[C@H](CC(C)C)NC(C)=O)C(=O)N[C@@H](CCC(=O)O)C(=O)N[C@@H](CCC(=O)O)C(=O)N[C@@H](CC(C)C)C(=O)N2)C(C)C)[C@@H](C)CC)C(=O)N[C@@H](C(C)C)C(=O)N[C@@H](CC(C)C)C(=O)N[C@@H](CCCC)C(=O)N[C@@H](CO)C(=O)N[C@@H](CC(C)C)C(=O)N[C@@H](C(C)C)C(=O)N1)C(=O)NCC(N)=O` [SP-310] (Ac-LLQ[S5]EEL[S5]RALDQVNIDE[R8]VL[Nle]SLV[S5]E[Nle]G-NH2; staple 4-8, 19-26), in experiment [1], the IC50 is 400 to 700 nM. Moreover, in the experiment with HRE-bla ME-180 cells [2], the “18 h Avg % max inhibition at top conc” value is “+ (<10: +)” and the EC50 was > 30 µM. The “Viability 1% FBS AVG” value in the experiment with HRE-bla ME-180 cells [3] was “++++ (≥30: ++++)”.
For `CCCC[C@H](NC(=O)[C@H](CCC(=O)O)NC(=O)[C@]1(C)CCCC=CCCCCCC[C@@](C)(NC(=O)[C@H](CCC(=O)O)NC(=O)[C@H](CC(=O)O)NC(=O)[C@@H](NC(=O)[C@H](CC(N)=O)NC(=O)[C@@H](NC(=O)[C@]2(C)CCCC=CCCCCCC[C@@](C)(NC(=O)[C@H](CCC(=O)O)NC(=O)CNC(=O)[C@H](CCC(N)=O)NC(=O)[C@H](CC(C)C)NC(=O)[C@H](CC(C)C)NC(C)=O)C(=O)N[C@@H](CC(C)C)C(=O)N[C@@H](CC(C)C)C(=O)N[C@@H](CCCNC(=N)N)C(=O)N[C@@H](C)C(=O)N[C@@H](CC(C)C)C(=O)N[C@@H](C)C(=O)N2)C(C)C)[C@@H](C)CC)C(=O)N[C@@H](C(C)C)C(=O)N[C@@H](CC(C)C)C(=O)N[C@@H](CCCC)C(=O)N[C@@H](CO)C(=O)N[C@@H](CC(C)C)C(=O)N[C@@H](C(C)C)C(=O)N1)C(N)=O` [SP-354] (Ac-LLQGE[R8]LLRALA[S5]VNIDE[R8]VL[Nle]SLV[S5]E[Nle]-NH2; staple 6-13, 19-26), the half-maximal inhibitory concentration (IC50) in experiment [1] was 200 to 400 nM. Moreover, in the experiment with HRE-bla ME-180 cells [2], the “18 h Avg % max inhibition at top conc” value is “+++ (≤25 but <50: +++)” and the EC50 is > 30 µM. The “Viability 1% FBS AVG” value in the experiment on HRE-bla ME-180 cells [3] is on record as “++++ (≥30: ++++)”.
With `CCCC[C@@H]1NC(=O)[C@H](CC(C)C)NC(=O)[C@](C)(NC(=O)[C@H](CCC(=O)O)NC(=O)[C@H](CCC(=O)O)NC(=O)[C@H](CC(=O)O)NC(=O)[C@@H](NC(=O)[C@H](CC(N)=O)NC(=O)[C@@H](NC(=O)[C@H](CCC(N)=O)NC(=O)[C@H](CC(=O)O)NC(=O)[C@H](CC(C)C)NC(=O)[C@]2(C)CCCC=CCCC[C@](C)(NC(=O)[C@H](CCC(=O)O)NC(=O)CNC(=O)[C@H](CCC(N)=O)NC(=O)[C@H](CC(C)C)NC(=O)[C@H](CC(C)C)NC(C)=O)C(=O)N[C@@H](CC(C)C)C(=O)N[C@@H](CC(C)C)C(=O)N[C@@H](CCCNC(=N)N)C(=O)N2)C(C)C)[C@@H](C)CC)CCCCCCC=CCCC[C@@](C)(C(=O)N[C@@H](CCCC)C(=O)NCC(N)=O)NC(=O)[C@H]([C@@H](C)CC)NC(=O)[C@H](C(C)C)NC(=O)[C@H](CC(C)C)NC(=O)[C@H](CO)NC1=O` [SP-330] (Ac-LLQGE[S5]LLR[S5]LDQVNIDEE[R8]L[Nle]SLVI[S5][Nle]G-NH2; staple 6-10, 20-27), in experiment [1], the IC50 is > 700 nM. Moreover, in the experiment with HRE-bla ME-180 cells [2], the “18 h Avg % max inhibition at top conc” value is “+ (<10: +)” and the EC50 was > 30 µM. Further, the “Viability 1% FBS AVG” value with HRE-bla ME-180 cells [3] is “++++ (≥30: ++++)”.
